# Laboratory results taken from patent US9028856B2, “Synergistic pesticide compositions” (priority 2008, dated 2015).
# Key:
# [1] = format: physicochemical; settings: classified from Log P
# [2] = system: tropical house mosquito Culex quinquefasciatus (adults, 3 days old); test: Efficacy of formulations on surfaces (glazed/unglazed tiles, plywood), ten 3 day old mosquitoes, 3 min exposure; format: in vivo; settings: EC formulation, 3 minutes exposure
# Summary of the method: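 Test agents in acetone, 1 ml pipetted onto 15×15 cm glazed tiles (plywood/unglazed tiles also used; 1 cm edge untreated). USDA Petri Dish Method: ten 3-day-old adults held 3 min under a perforated dish, then given a water-soaked cotton pad. Knock-down scored 3 min–4 h, mortality at 24 h; mean of three batches.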
# [3] = system: Musca domestica, susceptible strain WHO(N); test: Efficacy of formulations on surfaces (glazed/unglazed tiles), house flies, continuous exposure; format: in vivo; settings: for % KD and Mortality 15′ / % KD and Mortality 30′ / % KD and Mortality 1 h / % KD and Mortality 2 h / % KD and Mortality 3 h / % KD and Mortality 4 h / % KD and Mortality 6 h / % KD and Mortality 24 h: Table 114, EC formulation, continuous exposure
# Experimental: A flat fan nozzle (type SS 8003-E) in a spray cabin was moved automatically over a defined area where the solutions were sprayed very evenly onto the surfaces. The formulation was mixed with water to give a concentration which corresponded to the desired quantity of a.i./m^2. A defined quantity of this solution was sprayed onto the area (nominal 350 liter/ha=0.77 ml per surface).
# (§1) All surfaces were provided with talcum-coated glass rings (diameter 9.5 cm, height 5.5 cm) one day later.
# The test insects were anesthetized with CO2, 20 individuals were placed onto the treated surfaces and the glass ring was covered with wire gauze ring.
# Knock down was determined after 15 and 30′, 1, 2, 4 and 6 hours, mortality after 1 day exposure.
# Each test consisted of at least one replicate and any additional replicates are noted.
# Test Insects: House flies (Musca domestica) of both sexes, susceptible strain WHO(N) and resistant strain Reichswald
# Evaluation: Mortality was evaluated cumulatively at different times. […]
# Test Insects: Culex quinquefasciatus (adults) (3 minutes exposure time according to USDA Petri Dish Method), Musca domestica (adults), susceptible and resistant strain, Blattella germanica (males), Cimex lectularius (adults) (all: continuous exposure time)
# Application: The EC formulation (diluted with water 1:9) were applied as 0.85 ml solutions onto glazed tiles (15 cm×15 cm)
# Evaluation: Knock down after 15, and 30 minutes, 1, 2, 3, 4, 6 and 24 hours (mortality)
# (§2) Test Insects: Culex quinquefasciatus (adults, susceptible) (3 minutes exposure time according to USDA Petri Dish Method), Musca domestica (adults, susceptible and resistant), Blattella germanica (males, susceptible) (both: continuous exposure time)
# (§3) Formulations: Insecticide with or without 10% Compound A (as EC), to be diluted with water (1 part formulation+9 parts water)
# Evaluation: Knock down after 3, 9 (mosquitoes only), 15, and 30 minutes, 1, 2, 3, 4 and 24 hours (mortality) […]
# [4] = system: Blattella germanica (males, susceptible); test: Efficacy of EC formulations on glazed/unglazed tiles, continuous exposure; format: in vivo; settings: EC formulation
# Experimental: as §1
# The test insects were anesthetized with CO2, 20 individuals were placed onto the treated surfaces and the glass ring was covered with wire gauze ring. […]
# Each test consisted of at least one replicate and any additional replicates are noted. […]
# as §2, §3
# Application: 1 ml of the diluted formulations was applied by pipette onto glazed tiles (15×15 cm)
# Evaluation: Knock down after 3, 9 (mosquitoes only), 15, and 30 minutes, 1, 2, 3, 4 and 24 hours (mortality)
# [5] = 0.1% = 50 mg Bendiocarb/m^2 on glazed tiles
# [6] = 0.001% deltamethrin in acetone on glazed tiles, with or without adjuvant
# [7] = 0.02% = 10 mg Ethiprole/m^2 on glazed tiles
# [8] = 0.1% = 50 mg imidacloprid/m^2 on glazed tiles
structure (smiles),measurement,setting,value
CNC(=O)Oc1cccc2c1OC(C)(C)O2 [bendiocarb],Likelihood of Direct Insect Cuticular Penetration,[1],Slow (classified as “SLOW” when the compound has a Log P value of about <2.0)
same,% KD and Mortality 15′,[2]; [5],0%
same,% KD and Mortality 30′,[2]; [5],0%
same,% KD and Mortality 1 h,[2]; [5],80%
same,% KD and Mortality 2 h,[2]; [5],100%
same,% KD and Mortality 3 h,[2]; [5],100%
same,% KD and Mortality 4 h,[2]; [5],100%
same,% KD and Mortality 6 h,[2]; [5],100%
same,% KD and Mortality 24 h,[2]; [5],100%
same,% KD and Mortality 15′,[3]; [5],25%
same,% KD and Mortality 30′,[3]; [5],65%
same,% KD and Mortality 1 h,[3]; [5],85%
same,% KD and Mortality 2 h,[3]; [5],85%
same,% KD and Mortality 3 h,[3]; [5],85%
same,% KD and Mortality 4 h,[3]; [5],85%
same,% KD and Mortality 6 h,[3]; [5],85%
same,% KD and Mortality 24 h,[3]; [5],95%
same,% KD and Mortality 15′,[4]; [5],0%
same,% KD and Mortality 30′,[4]; [5],40%
same,% KD and Mortality 1 h,[4]; [5],60%
same,% KD and Mortality 2 h,[4]; [5],60%
same,% KD and Mortality 3 h,[4]; [5],80%
same,% KD and Mortality 4 h,[4]; [5],80%
same,% KD and Mortality 6 h,[4]; [5],80%
same,% KD and Mortality 24 h,[4]; [5],80%
CC1(C)[C@H](C(=O)O[C@H](C#N)c2cccc(Oc3ccccc3)c2)[C@@H]1C=C(Br)Br [deltamethrin],Likelihood of Direct Insect Cuticular Penetration,[1],Fast (classified as “FAST” when it has a Log P value of about >4.0)
same,% of the flies killed after 15′,"[3]; 0.001% deltamethrin in acetone on glazed tiles, with or without 1% Compound A + 0.5% Compound B",2%
same,% of the flies killed after 30′,[3]; [6],18%
same,% of the flies killed after 1 h,[3]; [6],58%
same,% of the flies killed after 2 h,[3]; [6],80%
same,% of the flies killed after 3 h,[3]; [6],88%
same,% of the flies killed after 24 h,[3]; [6],92%
CC[S+]([O-])c1c(C#N)nn(-c2c(Cl)cc(C(F)(F)F)cc2Cl)c1N (stereo not shown) [ethiprole],Likelihood of Direct Insect Cuticular Penetration,[1],Fast (classified as “FAST” when it has a Log P value of about >4.0)
same,% KD and Mortality 15′,[2]; [7],0%
same,% KD and Mortality 30′,[2]; [7],0%
same,% KD and Mortality 1 h,[2]; [7],0%
same,% KD and Mortality 2 h,[2]; [7],10%
same,% KD and Mortality 3 h,[2]; [7],10%
same,% KD and Mortality 4 h,[2]; [7],10%
same,% KD and Mortality 6 h,[2]; [7],10%
same,% KD and Mortality 24 h,[2]; [7],60%
same,% KD and Mortality 15′,[3]; [7],0%
same,% KD and Mortality 30′,[3]; [7],0%
same,% KD and Mortality 1 h,[3]; [7],0%
same,% KD and Mortality 2 h,[3]; [7],5%
same,% KD and Mortality 3 h,[3]; [7],15%
same,% KD and Mortality 4 h,[3]; [7],15%
same,% KD and Mortality 6 h,[3]; [7],25%
same,% KD and Mortality 24 h,[3]; [7],95%
same,% KD and Mortality 15′,[4]; [7],0%
same,% KD and Mortality 30′,[4]; [7],0%
same,% KD and Mortality 1 h,[4]; [7],0%
same,% KD and Mortality 2 h,[4]; [7],80%
same,% KD and Mortality 3 h,[4]; [7],100%
same,% KD and Mortality 4 h,[4]; [7],100%
same,% KD and Mortality 6 h,[4]; [7],100%
same,% KD and Mortality 24 h,[4]; [7],100%
O=[N+]([O-])NC1=NCCN1Cc1ccc(Cl)nc1 [imidacloprid],Likelihood of Direct Insect Cuticular Penetration,[1],Slow (classified as “SLOW” when the compound has a Log P value of about <2.0)
same,% KD and Mortality 15′,[2]; [8],0%
same,% KD and Mortality 30′,[2]; [8],0%
same,% KD and Mortality 1 h,[2]; [8],0%
same,% KD and Mortality 2 h,[2]; [8],10%
same,% KD and Mortality 3 h,[2]; [8],20%
same,% KD and Mortality 4 h,[2]; [8],20%
same,% KD and Mortality 6 h,[2]; [8],20%
same,% KD and Mortality 24 h,[2]; [8],100%
same,% KD and Mortality 15′,[3]; [8],25%
same,% KD and Mortality 30′,[3]; [8],55%
same,% KD and Mortality 1 h,[3]; [8],40%
same,% KD and Mortality 2 h,[3]; [8],95%
same,% KD and Mortality 3 h,[3]; [8],95%
same,% KD and Mortality 4 h,[3]; [8],95%
same,% KD and Mortality 6 h,[3]; [8],95%
same,% KD and Mortality 24 h,[3]; [8],100%
same,% KD and Mortality 15′,[4]; [8],0%
same,% KD and Mortality 30′,[4]; [8],0%
same,% KD and Mortality 1 h,[4]; [8],20%
same,% KD and Mortality 2 h,[4]; [8],80%
same,% KD and Mortality 3 h,[4]; [8],100%
same,% KD and Mortality 4 h,[4]; [8],100%
same,% KD and Mortality 6 h,[4]; [8],100%
same,% KD and Mortality 24 h,[4]; [8],100%
